# US20040006061A1, “Alkoxybenzylamine” (priority 2001, published 2004)
# Like-named read-outs stand apart in the source and are kept apart here.
# Legend:
# [1] = system: Staphylococcus hominis DSM 20328; experiment: Determination of the Minimum Inhibitory Concentration (MIC value) in microtitre plates, Staphylococcus hominis; type: cell-based; settings: for MIC: Staphylococcus hominis, DSM20328, 48 h, read-out: MIC [μg/ml] SH
# Experimental: (§1) Determination of the Minimum Inhibitory Concentration (MIC Value) in Microtitre Plates
# Casein-soybean flour-peptone broth for preparation of pre-cultures of test bacteria and yeast.
# Staphylococcus hominis DSM 20328 […]
# (§2) The test substances are pre-dissolved in dimethyl sulfoxide (DMSO) and tested in a dilution series of 1:2.
# (§3) The bacteria are cultured overnight in CASO broth and washed off using 10 ml of 0.85% sodium chloride solution (+0.1% Triton X-100).
# (§4) All the test organisms are adjusted to an organism count of 1-5×10^6 CFU/ml using 0.85% sodium chloride solution.
# (§5) The test substances are pre-pipetted into microtitre plates in amounts of 8 μl per well.
# (§6) Pre-diluted test organism suspensions are diluted 1:100 in CASO broth.
# (§7) The test batches are incubated for 48 hours at 37° C.
# (§8) After incubation, the growth is determined on the basis of the turbidity of the test batches (optical density) at 620 nm in a microplate reader.
# (§9) The minimum inhibitory concentration (MIC value) is the concentration of substance at which there is found (compared to the growth of the control) an appreciable inhibition of growth (≦20% growth) of the test organisms.
# (§10) One microtitre plate is used for each test organism and substance concentration.
# (§11) All the substances are tested in duplicate.
# [2] = system: Escherichia coli NCTC 8196; experiment: Determination of the Minimum Inhibitory Concentration (MIC value) in microtitre plates, Escherichia coli; type: cell-based; settings: for MIC: Escherichia coli, NCTC8196, 48 h, read-out: MIC [μg/ml] EC
# Experimental: as §1
# Casein-soybean flour-peptone broth for preparation of pre-cultures of test bacteria and yeast. […]
# Escherichia coli NCTC 8196
# as §2, §3, §4, §5, §6, §7, §8, §9, §10, §11
# [3] = Staphylococcus hominis DSM 20328, CASO broth, 48 hours at 37° C., MIC = ≦20% growth (optical density at 620 nm)
# [4] = Escherichia coli NCTC 8196, CASO broth, 48 hours at 37° C., MIC = ≦20% growth (optical density at 620 nm)
SMILES,"MIC [1, 3] [µg/mL]","MIC [2, 4] [µg/mL]",also measured
CCCCCCCCOc1ccc(CN(C)CCCC)cc1OC [Compound of formula (41)],15,15,–
CCCCCCOc1ccc(CN(C)Cc2ccccc2)cc1OC [Compound of formula (31)],> 120,> 120,–
CCCCCCOc1ccc(CN(C)CCc2ccccn2)cc1OC [Compound of formula (23)],60,> 120,–
CCCOc1ccc(CN(C)C)cc1OC [Compound of formula (68)],> 120,> 120,–
CCCOc1ccc(CN(C)Cc2ccccc2)cc1OC [Compound of formula (63)],> 120,> 120,–
CCCCCCCCOc1ccc(CN(C)CCCCCC)cc1OC [Compound of formula (48)],120,> 120,–
CCCCCCCCCCCCOc1ccc(CN(C)CC)cc1 [Compound of formula (77)],15,> 120,–
CCCCCCOc1ccc(CN2CCN(CC)CC2)cc1OCCCCCC [Compound of formula (97)],30,120,–
CCCCCCCCOc1ccc(CN2CCOCC2)cc1OC [Compound of formula (40)],> 120,> 120,–
CCCCCCCCCCCCOc1ccc(CN(C(C)C)C(C)C)cc1OC [Compound of formula (11)],> 120,> 120,–
CCCCCCN(C)Cc1ccc(OCCC)c(OC)c1 [Compound of formula (64)],> 120,> 120,–
CCCCCCCCCCCCOc1ccc(CN(C)CCc2ccccn2)cc1OC [Compound of formula (7)],60,> 120,–
CCCOc1ccc(CN2CCN(C(C)=O)CC2)cc1OC [Compound of formula (62)],> 120,> 120,–
CCCOc1ccc(CN2CCOCC2)cc1OC [Compound of formula (56)],120,> 120,–
CCCCCCCCOc1ccc(CN2CCCCCC2)cc1OC [Compound of formula (42)],15,15,–
CCCCCCCCCCCCOc1ccc(CN(C)CCCCCCCCCCCC)cc1OC [Compound of formula (19)],> 120,> 120,–
CCCCCCOc1ccc(CN(C)Cc2ccccc2)cc1OCCCCCC [Compound of formula (95)],> 120,> 120,–
CCCCCCOc1ccc(CN(CC)CC)cc1OCCCCCC [Compound of formula (93)],7.5,120,–
CCCCCCCCCCCCOc1ccc(CN(C(C)C)C(C)C)cc1 [Compound of formula (75)],> 120,> 120,–
CCCOc1ccc(CN2CCCCC2)cc1OC [Compound of formula (70)],> 120,> 120,–
CCCCCCOc1ccc(CN2CCCCCC2)cc1OC [Compound of formula (26)],> 120,> 120,–

SMILES,"MIC [1, 3] [µg/mL]","MIC [2, 4] [µg/mL]",also measured
CCCCCCOc1ccc(CN(C)C)cc1OCCCCCC [Compound of formula (100)],7.5,7.5,–
CCCCCCCCCCCCOc1ccc(CN2CCCC2)cc1OC [Compound of formula (18)],3.75,15,–
CCCCCCCCCCCCOc1ccc(CN(C)Cc2ccccc2)cc1OC [Compound of formula (15)],15,> 120,–
CCCCCCCCCCCCOc1ccc(CN2CCCCCC2)cc1OC [Compound of formula (10)],3.75,> 120,–
CCCCCCOc1ccc(CN2CCN(C)CC2)cc1OCCCCCC [Compound of formula (92)],15,60,–
CCCCCCCCCCCCOc1ccc(CN2CCCCCC2)cc1 [Compound of formula (74)],3.75,> 120,–
CCCCCCCCCCCCOc1ccc(CN(CC)CC)cc1OC [Compound of formula (13)],3.75,> 120,–
CCCCCCCCCCCCOc1ccc(CN(C)CCCCCC)cc1OC [Compound of formula (16)],120,> 120,–
CCCCCCCCOc1ccc(CN2CCN(C)CC2)cc1OC [Compound of formula (44)],120,120,–
CCCCCCOc1ccc(CN2CCCC2)cc1OC [Compound of formula (6)],> 120,> 120,–
CCCCCCCCCCCCOc1ccc(CN2CCN(CC)CC2)cc1 [Compound of formula (81)],15,> 120,–
CCCOc1ccc(CN(C(C)C)C(C)C)cc1OC [Compound of formula (59)],> 120,> 120,–
CCCCCCCCOc1ccc(CN(C)Cc2ccccc2)cc1OC [Compound of formula (47)],> 120,> 120,–
CCCCCCCCCCCCOc1ccc(CN2CCN(C(C)=O)CC2)cc1OC [Compound of formula (14)],> 120,> 120,–
CCCCCCOc1ccc(CN(C(C)C)C(C)C)cc1OC [Compound of formula (27)],> 120,> 120,–
CCCCCCOc1ccc(CN(C)C)cc1OC [Compound of formula (36)],> 120,> 120,–
CCCOc1ccc(CN(CC)CC)cc1OC [Compound of formula (61)],> 120,> 120,–
CCCCCCCCCCCCOc1ccc(CN(C)CCCC)cc1 [Compound of formula (73)],120,> 120,–
CCCCCCCCOc1ccc(CN2CCCC2)cc1OC [Compound of formula (50)],60,60,–
CCCCCCOc1ccc(CN2CCCC2)cc1OCCCCCC [Compound of formula (98)],3.75,7.5,–
CCCCCCCCCCCCOc1ccc(CN2CCN(C(C)=O)CC2)cc1 [Compound of formula (78)],> 120,> 120,–

SMILES,"MIC [1, 3] [µg/mL]","MIC [2, 4] [µg/mL]",also measured
CCCCCCCCCCCCOc1ccc(CN2CCOCC2)cc1 [Compound of formula (72)],> 120,> 120,–
CCCCCCCCOc1ccc(CN(CC)CC)cc1OC [Compound of formula (45)],120,120,–
CCCCCCOc1ccc(CN(C)CCCCCC)cc1OCCCCCC [Compound of formula (96)],120,> 120,–
CCCCCCOc1ccc(CN2CCNCC2)cc1OC [Compound of formula (37)],–,–,MIC [1]: > 120 µg/mL; MIC [2]: > 120 µg/mL
CCCCCCCCCCCCOc1ccc(CN2CCCCC2)cc1 [Compound of formula (86)],7.5,> 120,–
CCCCCCOc1ccc(CN2CCCCCC2)cc1OCCCCCC [Compound of formula (90)],7.5,> 120,–
CCCCCCOc1ccc(CN2CCN(C(C)=O)CC2)cc1OC [Compound of formula (30)],> 120,> 120,–
CCCCCCCCOc1ccc(CN2CCCCC2)cc1OC [Compound of formula (54)],60,30,–
CCCCCCCCCCCCOc1ccc(CN2CCN(C)CC2)cc1OC [Compound of formula (12)],3.75,120,–
CCCCCCOc1ccc(CN(C)CCCC)cc1OCCCCCC [Compound of formula (89)],60,> 120,–
CCCCCCCCCCCCOc1ccc(CN2CCN(C)CC2)cc1 [Compound of formula (76)],7.5,> 120,–
CCCCCCCCOc1ccc(CN(C)C)cc1OC [Compound of formula (52)],120,120,–
CCCCCCCCOc1ccc(CN(C(C)C)C(C)C)cc1OC [Compound of formula (43)],> 120,> 120,–
CCCCN(C)Cc1ccc(OCCC)c(OC)c1 [Compound of formula (57)],> 120,120,–
CCCCCCOc1ccc(CN2CCNCC2)cc1OCCCCCC [Compound of formula (101)],> 120,> 120,–
CCCOc1ccc(CN2CCCCCC2)cc1OC [Compound of formula (58)],120,> 120,–
CCCCCCCCCCCCN(C)Cc1ccc(OCCCCCC)c(OCCCCCC)c1 [Compound of formula (99)],> 120,> 120,–
CCCCCCCCCCCCOc1ccc(CN2CCCC2)cc1 [Compound of formula (83)],–,–,"MIC [μg/ml] SH ([1]; Staphylococcus hominis DSM 20328, CASO broth, 48 hours at 37° C., MIC = ≦20% growth (optical density at 620 nm), listed as (83)): >120 µg/mL; MIC [μg/ml] EC [2, 4]: >120 µg/mL"
CCCCCCOc1ccc(CN(CC)CC)cc1OC [Compound of formula (29)],> 120,> 120,–
CCCCCCCCCCCCOc1ccc(CN2CCCC2)cc1OC [Compound of formula (4)],–,–,"MIC [μg/ml] EC [2, 4]: 30 µg/mL"
